Reference: patent US6472348B1, “Pyridone derivatives and herbicides” (Kumiai Chemical Industry Co., Ltd., priority 1996, dated 2002)

Experiments:
Assay type in all cases: in vivo
Set-up in all cases: scale not given here
[1] = test system: slender amaranth (Am); experiment: Test Example 3: herbicidal effects by upland field foliage treatment
Procedure, shortened: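 Readout: visual herbicidal rating per defined standards, 14th day after treatment. Plants sown in sand (pot area 120 cm^2), soil-covered, greenhouse-cultured for 2 weeks prior to foliage application, then greenhouse-grown until scoring.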

[2] = test system: China jute (Ab); experiment: Test Example 6: crop plant selectivity by upland field soil treatment (soybean), herbicidal effects; settings: 21st day after application
Procedure, shortened: (§1)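 Soybean and weeds sown in sand-filled pots and covered with soil, then treated by soil application. Plants grown in a greenhouse, with herbicidal effect and crop phytotoxicity scored on day 21 after application against a fixed rating scale.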

[3] = test system: common lambsquarters (Ch); experiment: as above; settings: 21st day after application
Procedure, shortened: as §1

[4] = test system: green foxtail (Se); experiment: as above; settings: 21st day after application
Procedure, shortened: as §1

[5] = test system: China jute (Ab); experiment: Test Example 11: crop plant selectivity by upland field foliage treatment (corn), herbicidal effects; settings: dose 1.6 g ai/10a
Procedure, shortened: (§2)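 Corn with pale smartweed, slender amaranth, common lambsquarters and China jute sown in sand-filled pots and grown 2 weeks in a greenhouse before foliage treatment. Herbicidal effect and crop phytotoxicity scored on day 14 after treatment against a rating standard.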

[6] = test system: common lambsquarters (Ch); experiment: as above; settings: dose 1.6 g ai/10a
Procedure, shortened: as §2

[7] = test system: pale smartweed (Po); experiment: as above; settings: dose 1.6 g ai/10a
Procedure, shortened: as §2

[8] = test system: slender amaranth (Am); experiment: as above; settings: dose 1.6 g ai/10a
Procedure, shortened: as §2

[9] = 100 g active ingredient per 10 ares, evaluated 14th day after treatment
[10] = China jute, foliage treatment, evaluated on 14th day after treatment, index per Table 47
[11] = common lambsquarters, foliage treatment, evaluated on 14th day after treatment, index per Table 47
[12] = pale smartweed, foliage treatment, evaluated on 14th day after treatment, index per Table 47
[13] = slender amaranth, foliage treatment, evaluated on 14th day after treatment, index per Table 47
[14] = 100 g of the active ingredient per 10 ares, evaluated on the 14th day after treatment
[15] = upland field foliage treatment (corn test), 14th day after treatment

Compound: CCc1cc2c(Cl)cc(F)c(-c3ccc(C(F)(F)F)n(C)c3=O)c2o1 [Compound 5-2]
- Herbicidal effects Am [1, 9]: 5
- Herbicidal effects Ab ([2]; dose 6.3 g ai/10a): 5
- Herbicidal effects Ch ([3]; dose 6.3 g ai/10a): 5
- Herbicidal effects Se ([4]; dose 6.3 g ai/10a): 5
- Herbicidal effects Ab [5, 10]: 5
- Herbicidal effects Ch [6, 11]: 5
- Herbicidal effects Po [7, 12]: 5
- Herbicidal effects Am [8, 13]: 5

Compound: Cn1c(C(F)(F)F)ccc(-c2cc(OCCCl)c(Cl)cc2F)c1=O [1-171]
- Herbicidal effects Am [1, 14]: 5
- Herbicidal effects Ab ([2]; dose 6.3 g ai/10a): 5
- Herbicidal effects Ch ([3]; dose 6.3 g ai/10a): 5
- Herbicidal effects Se ([4]; dose 6.3 g ai/10a): 5
- Herbicidal effects Ab [5, 15]: 5
- Herbicidal effects Ch [6, 15]: 5
- Herbicidal effects Po [7, 15]: 5
- Herbicidal effects Am [8, 15]: 5

Compound: Cn1c(C(F)(F)F)ccc(-c2cc(C#N)c(Cl)cc2F)c1=O [Compound No. 1-119, 3-(4-chloro-5-cyano-2-fluorophenyl)-1-methyl-6-trifluoromethyl-2(1H)-pyridone]
- Herbicidal effects Am [1, 14]: 5
- Herbicidal effects Ab ([2]; dose 6.3 g ai/10a): 5
- Herbicidal effects Ch ([3]; dose 6.3 g ai/10a): 5
- Herbicidal effects Se ([4]; dose 6.3 g ai/10a): 5
- Herbicidal effects Ab [5, 15]: 4
- Herbicidal effects Ch [6, 15]: 5
- Herbicidal effects Po [7, 15]: 5
- Herbicidal effects Am [8, 15]: 5

Compound: C#CC(C)Oc1cc(-c2cn(C)c(C(F)(F)F)cc2=O)c(F)cc1Cl (racemic) [Compound 6-10]
- Herbicidal effects Am [1, 9]: 5
- Herbicidal effects Ab ([2]; dose 1.6 g ai/10a): 4
- Herbicidal effects Ch ([3]; dose 1.6 g ai/10a): 5
- Herbicidal effects Se ([4]; dose 1.6 g ai/10a): 4
- Herbicidal effects Ab [5, 10]: 5
- Herbicidal effects Ch [6, 11]: 5
- Herbicidal effects Po [7, 12]: 4
- Herbicidal effects Am [8, 13]: 5

Compound: CCOCOc1cc(-c2ccc(C(F)(F)F)n(C)c2=O)c(F)cc1Cl [1-181]
- Herbicidal effects Am [1, 14]: 5
- Herbicidal effects Ab ([2]; dose 6.3 g ai/10a): 5
- Herbicidal effects Ch ([3]; dose 6.3 g ai/10a): 5
- Herbicidal effects Se ([4]; dose 6.3 g ai/10a): 5
- Herbicidal effects Ab [5, 15]: 5
- Herbicidal effects Ch [6, 15]: 5
- Herbicidal effects Po [7, 15]: 5
- Herbicidal effects Am [8, 15]: 5

Compound: CCCC(=O)c1cc(-c2ccc(C(F)(F)F)n(C)c2=O)c(F)cc1Cl [Compound No. 1-194, 3-[4-chloro-2-fluoro-5-(1-oxobutyl)phenyl]-1-methyl-6-trifluoromethyl-2(1H)-pyridone]
- Herbicidal effects Am [1, 9]: 5
- Herbicidal effects Ab ([2]; dose 6.3 g ai/10a): 5
- Herbicidal effects Ch ([3]; dose 6.3 g ai/10a): 5
- Herbicidal effects Se ([4]; dose 6.3 g ai/10a): 5
- Herbicidal effects Ab [5, 15]: 5
- Herbicidal effects Ch [6, 15]: 5
- Herbicidal effects Po [7, 15]: 5
- Herbicidal effects Am [8, 15]: 5

Compound: Cn1c(C(F)(F)F)ccc(-c2c(F)cc(Cl)c3occc23)c1=O [Compound No. 4-28, 3-(7-chloro-5-fluorobenzofuran-4-yl)-1-methyl-6-trifluoromethyl-2-(1H)-pyridone]
- Herbicidal effects Am [1, 9]: 5
- Herbicidal effects Ab ([2]; dose 1.6 g ai/10a): 5
- Herbicidal effects Ch ([3]; dose 1.6 g ai/10a): 5
- Herbicidal effects Se ([4]; dose 1.6 g ai/10a): 5
- Herbicidal effects Ab [5, 15]: 5
- Herbicidal effects Ch [6, 15]: 5
- Herbicidal effects Po [7, 15]: 5
- Herbicidal effects Am [8, 15]: 5

Compound: CCOC(=O)CON=Cc1cc(-c2ccc(C(F)(F)F)n(C)c2=O)c(F)cc1Cl [Compound 1-191]
- Herbicidal effects Am [1, 9]: 5
- Herbicidal effects Ab ([2]; dose 6.3 g ai/10a): 5
- Herbicidal effects Ch ([3]; dose 6.3 g ai/10a): 5
- Herbicidal effects Se ([4]; dose 6.3 g ai/10a): 5
- Herbicidal effects Ab [5, 15]: 5
- Herbicidal effects Ch [6, 15]: 5
- Herbicidal effects Po [7, 15]: 5
- Herbicidal effects Am [8, 15]: 5

Compound: C#CCN1C(=O)COc2cc(Cl)c(-c3ccc(C(F)(F)F)n(C)c3=O)cc21 [Compound 2-25]
- Herbicidal effects Am [1, 9]: 5
- Herbicidal effects Ab ([2]; dose 1.6 g ai/10a): 5
- Herbicidal effects Ab ([2]; dose 6.3 g ai/10a): 5
- Herbicidal effects Ch ([3]; dose 1.6 g ai/10a): 5
- Herbicidal effects Ch ([3]; dose 6.3 g ai/10a): 5
- Herbicidal effects Se ([4]; dose 1.6 g ai/10a): 5
- Herbicidal effects Se ([4]; dose 6.3 g ai/10a): 5
- Herbicidal effects Ab [5, 15]: 5
- Herbicidal effects Ch [6, 15]: 5
- Herbicidal effects Po [7, 15]: 5
- Herbicidal effects Am [8, 15]: 5

Compound: CSCOc1cc(-c2ccc(C(F)(F)F)n(C)c2=O)c(F)cc1Cl [Compound 1-208]
- Herbicidal effects Am [1, 9]: 5
- Herbicidal effects Ab ([2]; dose 6.3 g ai/10a): 5
- Herbicidal effects Ch ([3]; dose 6.3 g ai/10a): 5
- Herbicidal effects Se ([4]; dose 6.3 g ai/10a): 5
- Herbicidal effects Ab [5, 15]: 5
- Herbicidal effects Ch [6, 15]: 5
- Herbicidal effects Po [7, 15]: 5
- Herbicidal effects Am [8, 15]: 5

Compound: C#CCOc1cc(-c2ccc(C(F)(F)F)n(C)c2=O)c(Cl)cc1Cl [1-30]
- Herbicidal effects Am [1, 14]: 5
- Herbicidal effects Ab ([2]; dose 1.6 g ai/10a): 5
- Herbicidal effects Ch ([3]; dose 1.6 g ai/10a): 5
- Herbicidal effects Se ([4]; dose 1.6 g ai/10a): 5
- Herbicidal effects Ab [5, 15]: 5
- Herbicidal effects Ch [6, 15]: 5
- Herbicidal effects Po [7, 15]: 5
- Herbicidal effects Am [8, 15]: 5
